# Entries after “also recorded” stand apart in the source; their conditions may differ. Where two headings read alike, the source gives them in different places.
# Assays:
# [1] = biological target: T1, apo riboflavin binding protein from eggs (Gallus gallus, UniProt P02752); assay: Titration of antibiotic with egg riboflavin binding protein; dissociation constant; set-up: species or system chicken
# T1 construct: obtained in homogeneous form from chicken egg white; from tissue; host or cells: chicken egg white
# T1 sequence (P02752 18-238): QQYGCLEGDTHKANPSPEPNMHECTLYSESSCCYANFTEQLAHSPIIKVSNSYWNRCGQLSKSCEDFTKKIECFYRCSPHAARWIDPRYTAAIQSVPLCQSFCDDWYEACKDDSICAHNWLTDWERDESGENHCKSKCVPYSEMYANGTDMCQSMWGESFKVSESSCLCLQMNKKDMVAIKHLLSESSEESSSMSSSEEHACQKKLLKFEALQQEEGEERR
# Experimental: The purified protein may be stored, for example, frozen at -20° C. in 10 mM potassium phosphate, 1 mM EDTA pH 7.0 buffer, at concentrations between about 1 and 10 mM.
# A working solution of adriamycin was obtained by dissolution in warm 0.035M potassium phosphate pH 7.0 buffer containing 0.15M NaCl and 0.5 mM EDTA and cooled to ambient temperature (24±2° C.). To a 3.0 mL solution containing 3 μM adriamycin was added 5.0 μL increments of a 0.49 mM binding protein solution in 10 mM potassium phosphate, 1 mM EDTA pH 7.0 buffer.
# Daunomycin was dissolved in warm buffer, followed by cooling. […] AD-32 was dissolved in dimethylformamide.
# The binding protein affinity of three anthracyclinones was determined: (±)-aklavinone, 7-deoxydaunomycinone and iso-7-deoxydaunomycinone. Aklavinone and 7-deoxydaunomycinone were made as concentrated solutions in dimethylformamide, and the solution concentrations determined by dilution into alcohol. Leuco iso-7-deoxydaunomycinone was dissolved in dimethylformamide and diluted into buffer. The general procedure of Example 1 was followed.
# Solutions were prepared and admixed as previously described.
# [2] = biological target: T1, apo riboflavin binding protein from eggs; assay: Anaerobic dithionite redox titration of the daunomycin-binding protein complex; set-up: species or system chicken
# Text: A further use of the antibiotic-protein complex is in redox titrations. Aqueous redox titrations of anthracyclines cannot be done. Although anthracycline glycosides are water soluble, loss of the glycoside (with its positive charge) provides the almost completely water insoluble 7-deoxyanthracyclinones. Unfortunately, glycoside loss is an integral aspect of anthracycline redox chemistry. The binding protein-anthracyclinecomplex has been used for anaerobic aqueous redox titrations. Dithionite reduction of the anthracycline glycoside provides, in a 2e^- process, the 7-deoxyanthracyclinone, via reductive elimination. The bound 7-deoxyanthracyclinone is then further 2e^- reduced to the bound hydroquinone. Semi-quinone radical intermediates are observed transiently; these are stable neither in solution nor complexed to the binding protein. Oxidation of the hydroquinone is accomplished by several reagents (oxygen, hydrogen peroxide, ferricyanide, cytochrome c). In the case of 7-deoxydaunomycinone hydroquinone, a mixture of two products is produced upon oxidation; these are the chromo 7-deoxydaunomycinone (identical to the first 2e^- reduction intermediate) and its leuco isomer, 8-acetyl-7,8,9,10-tetrahydro-5,8,12-trihydroxy-1-methoxy-6,11-napthacenedione(iso-7-deoxydaunomycinone).
# An anaerobic redox titration of the daunomycin-binding protein complex was done. […]
# [3] = Stability of free and binding protein-complexed compound (isomerization, light, storage); format: physicochemical
# Text: Also of interest is the high affinity of the binding protein for iso-7-deoxydaunomycinone(8-acetyl-7,8,9,10-tetrahydro-5,8,12-trihydroxy-1- methoxy-6,11-napthacenedione). This compound is a kinetic product of 7-deoxydaunomycinone hydroquinone oxidation.
# An anaerobic redox titration of the daunomycin-binding protein complex was done. The reducing agent used was dithionite anion. Spectrophotometric titrations were made on a Cary 219 spectrophotometer. Anaerobic titrations were done with gas tight syringes, with the deoxygenated solutions maintained under a positive pressure of O2 -free nitrogen. Dithionite was freshly prepared in O2 -free buffer and standardized by anaerobic riboflavin titration. Equilibration with dithionite is in all instances complete in seconds. […] Assignment of structure to this titration intermediate was confirmed by its isolation, and chromatographic comparison with an authentic sample. Further dithionite addition reduces the bound 7-deoxydaunomycinone to a new chromophore (λmax =407 nm). The hydroquinone is not further reduced, but is very easily oxidized upon mixing with oxidants such as oxygen, hydrogen peroxide, ferricyanide and cytochrome c. The absorption spectrum obtained following complete oxygen oxidation of the hydroquinone is different than any previous spectrum. Longer wavelength features, indicating the presence of 7-deoxydaunomycinone, are seen but a new chromophore (λmax approximately 445 nm) is also present. The structure of the compound corresponding to this chromophore is iso-7-deoxydaunomycinone on the basis of its spectroscopic data. In neutral aqueous buffer in the absence of the binding protein this compound promptly isomerizes to 7-deoxydaunomycinone (k=6×10^-4 s^-1). […] Binding protein stabilization is also reflected in an estimated 10-fold slower rate of dithionite reduction of the iso-7-deoxydaunomycinone compared to either 7-deoxydaunomycinone or daunomycin.
# [4] = spectrophotometric, solutions prepared and admixed as previously described, read-out: Kd (anthraquinones and anthraquinone-like molecules, Examples 11-15)
# [5] = general procedure of Example 1, read-out: Kd (anthracycline glycosides, Examples 2-7)
# [6] = general procedure of Example 1, read-out: Kd (anthracyclinones, Examples 8-10)
SMILES,Kd [1] [µM],binding to the binding protein (in words) [1],further results
CC[C@@]1(O)C[C@H](O[C@H]2C[C@H](N(C)C)[C@H](O[C@H]3C[C@H](O)[C@H](O[C@H]4CCC(=O)[C@H](C)O4)[C@H](C)O3)[C@H](C)O2)c2c(cc3c(c2O)C(=O)c2c(O)cccc2C3=O)[C@H]1C(=O)OC [Aclacinomycin A],1,bind with an affinity hardly different than that of adriamycin,binding to the binding protein (in words) ([1]; listed as aclacinomycin A): tight binding
"CCCCC(=O)OCC(=O)[C@]1(O)Cc2c(O)c3c(c(O)c2[C@@H](O[C@H]2C[C@H](NC(=O)C(F)(F)F)[C@H](O)[C@H](C)O2)C1)C(=O)c1c(OC)cccc1C3=O [AD-32, N-trifluoroacetyl-14-valeryl-adriamycin]",–,binds well; also recorded: tight binding,"formation of AD-32-binding protein complex ([1]; concentrated DMF solution added to slight molar excess of apo protein, approximately 20 μM each): quantitative formation of the AD-32-binding protein complex"
CN(C)CCCN1c2ccccc2Sc2ccc(Cl)cc21 [Chlorpromazine],–,high affinity,"Kd [1, 4]: ~1 µM"
CC[C@@]1(O)C[C@H](O)c2c(cc3c(c2O)C(=O)c2c(O)cccc2C3=O)[C@H]1C(=O)OC (relative stereo) [(±)-Aklavinone],0.02,"both enantiomers of the racemic aklavinone (7S, 9R, 10R, and 7R, 9S, 10S) are equally well bound",–
"CC(=O)[C@@]1(O)Cc2c(O)c3c(c(O)c2[C@H](O[C@H]2C[C@H](N)[C@H](O)[C@H](C)O2)C1)C(=O)c1ccccc1C3=O [7,9-Diepi-4-demethoxydaunomycin]",–,binds most tightly of all,"Kd [1, 5]: 0.08 µM"
Cc1c(C(=O)O)c(O)cc2c1C(=O)c1c(O)c([C@@H]3O[C@H](CO)[C@@H](O)[C@H](O)[C@H]3O)c(O)c(O)c1C2=O [Carminic acid],–,neither tetracycline nor carminic acid (an insect feeding deterrent) bind,"Kd [1, 4]: > 250 µM"
CN(C)[C@@H]1C(=O)C(C(N)=O)=C(O)[C@@]2(O)C(=O)C3=C(O)c4c(O)cccc4[C@@](C)(O)[C@H]3C[C@@H]12 [Tetracycline],> 250,neither tetracycline nor carminic acid (an insect feeding deterrent) bind,–
"O=C1c2c(O)ccc(O)c2C(=O)c2c(NCCNCCO)ccc(NCCNCCO)c21 [DHAQ, 1,4-dihydroxy-5,8-bis[[2-(hydroxyethyl)amino]ethyl]-9. 10-anthracenedione]",–,bound weakly,"Kd [1, 4]: 60 µM"
"COc1cccc2c(O)c3c(c(O)c12)C(=O)C1=C(C[C@@](O)(C(C)=O)CC1)C3=O [Iso-7-deoxydaunomycinone, 8-acetyl-7,8,9,10-tetrahydro-5,8,12-trihydroxy-1-methoxy-6,11-napthacenedione]",–,high affinity; also recorded: preferentially bound by the riboflavin binding protein,"slower rate of dithionite reduction compared to either 7-deoxydaunomycinone or daunomycin ([2]; binding protein stabilization, estimated): ~10 fold; stability (in words) ([3]; complexed to the binding protein): stable in organic solvents and when complexed to the binding protein; also recorded: stable for days; stability (in words) ([3]; free compound, aqueous buffer or organic solvents): not stable in aqueous buffer to isomerization to 7-deoxydaunomycinone; also recorded: stable in organic solvents; rate constant k of isomerization to 7-deoxydaunomycinone ([3]; neutral aqueous buffer, absence of the binding protein): 0.0006 s⁻¹; Kd [1, 6]: 0.02 µM"
COc1cccc2c1C(=O)c1c(O)c3c(c(O)c1C2=O)C[C@@](O)(C(C)=O)CC3 [7-Deoxydaunomycinone],–,–,"Kd [1, 6]: 0.08 µM"
COC(=O)[C@@H]1c2cc3c(c(O)c2[C@@H](O[C@@H]2O[C@@H](C)[C@H](OC)[C@@](C)(OC)[C@H]2OC)C[C@]1(C)O)C(=O)c1c(O)cc2c(c1C3=O)O[C@@H]1O[C@@]2(C)[C@H](O)[C@@H](N(C)C)[C@@H]1O [Nogalomycin],–,All save nogalomycin bind,"Kd [1, 5]: > 1000 µM"
CC(=O)[C@]1(O)Cc2c(O)c3c(c(O)c2[C@@H](O[C@H]2C[C@H](N)[C@H](O)[C@H](C)O2)C1)C(=O)c1ccccc1C3=O [4-Demethoxydaunomycin],–,bind with an affinity hardly different than that of adriamycin,"Kd [1, 5]: 0.3 µM"
Cc1cc2nc3c(=O)[nH]c(=O)nc-3n(C[C@H](O)[C@H](O)[C@H](O)CO)c2cc1C [riboflavin],–,no compound is more tightly bound by the egg binding protein than riboflavin,–
COc1cccc2c1C(=O)c1c(O)c3c(c(O)c1C2=O)C[C@@](O)(C(C)=O)C[C@@H]3O[C@H]1C[C@H](N)[C@H](O)[C@H](C)O1 [Daunomycin],0.4,bind with an affinity hardly different than that of adriamycin,"redox behaviour in titration (in words) ([2]; anaerobic, dithionite, oxidation by oxygen, hydrogen peroxide, ferricyanide, cytochrome c): first converted in a 2e^- process to 7-deoxydaunomycinone, with reductive elimination of the glycoside"
CCN(CC)CCCC(C)Nc1c2ccc(Cl)cc2nc2ccc(OC)cc12 (centres unmarked) [Quinacrine],–,high affinity,–
COc1cccc2c1C(=O)c1c(O)c3c(c(O)c1C2=O)C[C@@](O)(C(=O)CO)C[C@@H]3O[C@H]1C[C@H](N)[C@H](O)[C@H](C)O1 [Adriamycin],0.5 ± 0.1,good binding,–

# Reference: patent US4534971A, “Complexation of anthracycline and anthraquinone antibiotics by the apo riboflavin binding protein from eggs” (Regents of the University of Minnesota, priority 1982, dated 1985)
